Measured values: article PMC11920646 (Frontiers in Pharmacology, 2025)
Values joined by “and” are separate entries in the source; they are usually repeats but may differ in a detail not shown here. Equal entries are not always repeated.

Experiments:
[1] = tested on: LPS-induced IFN-γ release in human whole blood; experiment: Inhibition of LPS-induced IFN-γ release in human whole blood; format: cell-based; details: 24 h
Procedure: Appropriate control wells were included (2 μL DMSO ± LPS). Subsequently, 1 mL of whole blood solution from each well was incubated at 37°C for 24 h in LPS-containing culture tubes, where final test compound concentrations were 0.0032, 0.016, 0.08, 0.4, 2, and 10 μM. Culture supernatant was harvested using the Seraplas® V11 valve filter (Sarstedt, Nümbrecht, Germany) and IFN-γ determined using validated methods with the V-PLEX assay (V-PLEX Proinflammatory Panel 1 Human Kit, Meso Scale Discovery, Rockville, MD, United States), as shown in Supplementary Table S1. […] IC50 values corrected for PPB were also determined, giving IC50,free values (using the same formula as for the TNF-α assay in rat whole blood).

[2] = tested on: TNF-α–induced IL-6 release from primary fibroblast-like synoviocytes; experiment: Inhibition of TNF-α–induced IL-6 release by primary FLS from rheumatoid arthritis patients; format: cell-based, human; details: for IL-6 concentration: replicate wells 1-3
Procedure: In this assay, conducted by BioIVT (Hertfordshire, United Kingdom), primary FLS were obtained from three donors with rheumatoid arthritis and seeded at passage 4 in FGM™-2 fibroblast growth medium (Lonza) in 96-well plates at a density of […], and incubated overnight in standard conditions. […] Negative controls were TNF-α alone and culture medium alone, and vehicle control was DMSO (0.1%). IL-6 was measured in collected supernatant using an enzyme-linked immunosorbent assay (ELISA, R&D Systems Minneapolis, MN, United States) according to the manufacturer’s instructions.
% inhibition= compound -maxmin- max ×100

[3] = tested on: IL-1β–induced IL-6 release in A549 cells; experiment: Inhibition of IL-1β–induced IL-6 release in A549 cells; format: cell-based, human
Procedure: Cells from the human lung epithelial cell line A549 (CCL-185, ATCC) were seeded in 96-well plates at a density of […] in F12K Nutrient Mix (Gibco™, ThermoFisher Scientific, Waltham, MA, United States) with 10% fetal calf serum (FCS), and cultured for 24 h in standard conditions. […] After 30 min’ incubation, human IL-1β (1 ng/mL final concentration) was added at 50 µL/well, followed by a 20 h-incubation in standard conditions. Human IL-6 was measured in the collected supernatant using the human AlphaLISA® immunoassay kit (PerkinElmer; Supplementary Material).
Per the human AlphaLISA® (PerkinElmer) immunoassay kit instructions, the immuno-assay buffer was diluted 1:10 in water and the human IL-6 analyte standard was diluted in FCS-free F12K nutrient mix (30,000–10 pg/mL). Each standard dilution or sample (5 μL each) was added to the wells of a 96-well polystyrene compound plate, to which 20 µL of the test mix 1 (containing anti-IL-6 acceptor beads and biotinylated anti-IL-6 antibody diluted 1:200 in immuno-assay-buffer) was added to each well and incubated for 1 h at room temperature. Afterwards, donor beads were diluted 1:62.5 in immuno-assay-buffer and 25 µL were transferred to each well. After a 30-min incubation at room temperature, the plates were read using an EnVision Multilabel Reader® (PerkinElmer) equipped with the ALPHA option.

[4] = molecular target: T1, human progesterone receptor (PR) (Homo sapiens, UniProt P06401); experiment: Human PR radioligand binding (3H-progesterone, T47D cells); details: read-out: inhibition of 3H-progesterone binding; footnote: at 10 µM
T1 sequence (P06401 636-933 limits assumed): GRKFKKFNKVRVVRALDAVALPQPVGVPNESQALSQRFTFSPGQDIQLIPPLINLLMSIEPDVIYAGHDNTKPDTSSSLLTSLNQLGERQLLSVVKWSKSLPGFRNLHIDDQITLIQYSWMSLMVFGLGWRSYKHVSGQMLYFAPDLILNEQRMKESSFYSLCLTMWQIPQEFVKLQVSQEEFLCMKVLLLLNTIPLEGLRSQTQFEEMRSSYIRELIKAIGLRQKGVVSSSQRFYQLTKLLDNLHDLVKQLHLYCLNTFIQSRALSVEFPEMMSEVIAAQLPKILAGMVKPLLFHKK
Procedure: Scintillation counting of bound radioligand was conducted after 6 and 20 h of incubation (at 4°C), respectively. […] Scintillation counting of bound radioligand was conducted after 20 h of incubation at 4°C.
The same statistical methods were used for the MR binding assays, but using MathIQ™ software (ID Business Solutions Ltd., Woking, United Kingdom).
Percent inhibition of control specific binding was calculated as follows: […]
The half-maximal inhibitory concentration (IC50; i.e., the concentration causing a half-maximal inhibition of control specific binding) and Hill coefficients (nH) were determined by non-linear regression analysis of the competition curves generated with mean replicate values using the following Hill equation curve fitting: Y=D+ A-D1+ C/C50nH , where Y = specific binding, A = left asymptote of the curve, D = right asymptote of the curve, C = compound concentration, C50 = IC50, and nH = slope factor.
The inhibition constants (Ki) were calculated using the Cheng Prusoff equation:
where L = concentration of radioligand employed in the assay, and KD = affinity of the radioligand for the receptor (a Scatchard plot was used to determine the KD) (Cheng and Prusoff, 1973).

## C[C@]12C=CC(=O)C=C1CC[C@@H]1[C@@H]2[C@@H](O)C[C@@]2(C)[C@H]1CC[C@]2(O)C(=O)CO [Prednisolone]
[1]
  IC50: 13.4 ± 7.95 nM
  Inhibition of LPS-induced IFN-γ release: 99.3 ± 2.8%
[1]; listed as prednisolone
  Inhibition of LPS-induced IFN-γ release: 99%
[2]; Donor 1, compound −5 log M
  IL-6 concentration: 260.7 pg/mL and 224.6 pg/mL and 206.6 pg/mL
[2]; Donor 1, compound −6 log M
  IL-6 concentration: 269.7 pg/mL and 215.6 pg/mL and 206.6 pg/mL
[2]; Donor 1, compound −7 log M
  IL-6 concentration: 292.3 pg/mL and 274.3 pg/mL and 238.1 pg/mL
[2]; Donor 1, compound −8 log M
  IL-6 concentration: 616.3 pg/mL and 483.3 pg/mL and 446.8 pg/mL
[2]; Donor 1, compound −9 log M
  IL-6 concentration: 988.4 pg/mL and 736.4 pg/mL and 685.5 pg/mL
[2]; Donor 1, compound −10 log M
  IL-6 concentration: 880.6 pg/mL and 778.2 pg/mL and 796.8 pg/mL
[2]; Donor 1, compound −11 log M
  IL-6 concentration: 964.9 pg/mL and 801.4 pg/mL and 731.8 pg/mL
[2]; Donor 1, compound −12 log M
  IL-6 concentration: 946.2 pg/mL and 768.9 pg/mL and 708.6 pg/mL
[2]; Donor 1, compound −13 log M
  IL-6 concentration: 1101.6 pg/mL and 838.7 pg/mL and 755.0 pg/mL
[2]; Donor 1, compound −14 log M
  IL-6 concentration: 1106.3 pg/mL and 960.2 pg/mL and 880.6 pg/mL
[2]; Donor 2, compound −5 log M
  IL-6 concentration: 516.5 pg/mL and 385.6 pg/mL and 394.9 pg/mL
[2]; Donor 2, compound −6 log M
  IL-6 concentration: 521.2 pg/mL and 394.9 pg/mL and 381.0 pg/mL
[2]; Donor 2, compound −7 log M
  IL-6 concentration: 554.0 pg/mL and 394.9 pg/mL and 404.3 pg/mL
[2]; Donor 2, compound −8 log M
  IL-6 concentration: 848.1 pg/mL and 695.7 pg/mL and 681.5 pg/mL
[2]; Donor 2, compound −9 log M
  IL-6 concentration: 1338.8 pg/mL and 1045.5 pg/mL and 1157.3 pg/mL
[2]; Donor 2, compound −10 log M
  IL-6 concentration: 1309.2 pg/mL and 1108.6 pg/mL and 1215.9 pg/mL
[2]; Donor 2, compound −11 log M
  IL-6 concentration: 1497.4 pg/mL and 1079.5 pg/mL and 2570.2 pg/mL
[2]; Donor 2, compound −12 log M
  IL-6 concentration: 1427.8 pg/mL and 1215.9 pg/mL and 1123.2 pg/mL
[2]; Donor 2, compound −13 log M
  IL-6 concentration: 2326.4 pg/mL and 1123.2 pg/mL and 1142.7 pg/mL
[2]; Donor 2, compound −14 log M
  IL-6 concentration: 1552.3 pg/mL and 1393.1 pg/mL and 1255.1 pg/mL
[2]; Donor 3, compound −5 log M
  IL-6 concentration: 172.0 pg/mL and 199.6 pg/mL and 166.5 pg/mL
[2]; Donor 3, compound −6 log M
  IL-6 concentration: 170.2 pg/mL and 159.2 pg/mL and 179.4 pg/mL
[2]; Donor 3, compound −7 log M
  IL-6 concentration: 221.8 pg/mL and 220.0 pg/mL and 214.4 pg/mL
[2]; Donor 3, compound −8 log M
  IL-6 concentration: 621.9 pg/mL and 428.5 pg/mL and 386.6 pg/mL
[2]; Donor 3, compound −9 log M
  IL-6 concentration: 645.5 pg/mL and 847.5 pg/mL and 637.6 pg/mL
[2]; Donor 3, compound −10 log M
  IL-6 concentration: 1022.6 pg/mL and 1127.9 pg/mL and 983.0 pg/mL
[2]; Donor 3, compound −11 log M
  IL-6 concentration: 774.8 pg/mL and 813.1 pg/mL and 796.9 pg/mL
[2]; Donor 3, compound −12 log M
  IL-6 concentration: 904.7 pg/mL and 837.4 pg/mL and 859.7 pg/mL
[2]; Donor 3, compound −13 log M
  IL-6 concentration: 956.1 pg/mL and 937.5 pg/mL and 1151.3 pg/mL
[2]; Donor 3, compound −14 log M
  IL-6 concentration: 888.3 pg/mL and 831.3 pg/mL and 947.8 pg/mL
[2]; Homo sapiens, primary FLS from three RA donors, 24 h
  IC50: 5.6 ± 2.3 nM
[2]; primary FLS from three RA donors, 24 h
  Inhibition (efficacy) of TNF-α–induced IL-6 release: 79.8 ± 7.6%
[3]; 100% = 1 μM dexamethasone
  Inhibition of IL-1β–induced IL-6 release: 101 ± 2.7%
[3]; Homo sapiens, IL-1β 1 ng/mL, 20 h
  IC50: 0.86 ± 0.13 nM
[4]
  inhibition at 10 µM: 12.1 to 30.7%
